Measurements as given in patent US4294833A, “Substituted 4-hydroxy-isophthalic acid picolylamides having a pharmaceutical activity in thromboembolic disorders” (Societa Italo-Britannica, priority 1977, dated 1981).

Assays:
[1] = Acute toxicity, intraperitoneal; conditions: mouse, in vivo, ip, male Swiss mice, intraperitoneal, 7 days observation; preliminary, by graphic interpolation; read-out: acute toxicity (LD50 / DL50)
Protocol: The acute toxicity limit was determined intraperitoneally on male Swiss mice, weighing 20±2 g, held fasting for 18 hours with water ad libitum.
The animals were maintained under observation for 7 days of treatment, by examining the general symptomatology and noting the death sequency. The preliminary DL50 in mg/kg body weight was calculated by graphic interpolation of the results as obtained.
(§1) In tables I and II are further indicated for each compound the method of preparation; the melting point PF in °C; the platelet antiaggregant activity (AAP) expressed in terms of DI50 in mg/kg, referred to ADP and thrombin respectively; the antithrombin activity (AT) in %; the anticoagulant activity (AC) in %; the fibrinolytic activity (FL) in %; the acute toxicity (LD50) in mice, intraperitoneally, in mg/kg, as previously defined.

[2] = test system: platelet aggregation induced by ADP; assay: Platelet aggregation inhibitory activity in vivo (Born aggregometer), ADP-induced; design: species or system New Zealand rabbits; conditions: Oryctolagus cuniculus, Platelet, ip, dose for 50% inhibition of ADP-induced aggregation curve; rabbits, intraperitoneal, blood 2, 4 and 6 hours after injection; read-out: platelet antiaggregant activity (AAP), DI50, ADP
Protocol: (§2) Determination of the platelet aggregation inhibitory activity in vivo
(§3) The activity of the above described compounds as platelet antiaggregant was tested in vivo on rabbits, by the Born aggregometer. The inhibition of the aggregation curve induced by ADP and thrombin was assessed with different drug concentrations according to the platelet reactivity. New Zealand rabbits which had been held fasting for 12 hours with water ad libitum, were anaesthetized with Nembutal in a dose of 35 mg/kg intramuscolarly. The blood was withdrawn from the carotidal arthery, before (control) and 2, 4, and 6 hours after the intraperitoneal injection of the compounds under examination (at the dose indicated below). The blood samples were taken up in a 3.8% aqueous solution of sodium citrate in a ratio 10:1 and thereupon centrifuged at 1500 r.p.m. for 10 minutes, for obtaining a PRP (platelet rich plasma). A portion of such a plasma was thereupon centrifuged at 8000 r.p.m. for 10 minutes, for obtaining a PPP (platelet lean plasma) which was used for zeroing the measuring apparatus.
(§4) From the results of said experiments, there was determined the dose of each product in mg/kg body weight able to induce a 50% inhibition of the aggregation curve (DI50) after treatment, referred to the curve obtained by the same control plasma before treatment.
as §1

[3] = test system: platelet aggregation induced by thrombin; assay: Platelet aggregation inhibitory activity in vivo (Born aggregometer), thrombin-induced; design: species or system New Zealand rabbits; conditions: Oryctolagus cuniculus, Platelet, ip, dose for 50% inhibition of thrombin-induced aggregation curve; rabbits, intraperitoneal, blood 2, 4 and 6 hours after injection; read-out: platelet antiaggregant activity (AAP), DI50, Thrombin
Protocol: as §2, §3, §4, §1

[4] = test system: blood coagulum; assay: Fibrinolytic activity, Fearnley method (lysis of blood coagulum in toto); type: in vivo; conditions: Oryctolagus cuniculus, ip, 0.5 h, percent decrease of coagulum weight after 30 minutes at 37° C.; 25 mg/kg intraperitoneal, rabbits; read-out: fibrinolytic activity (FL)
Protocol: Determination of the fibrinolytic activity
The determination of the fibrinolytic activity was made following the Fearnley method for the lysis of the blood coagulum in toto.
0.2 ml of blood were withdrawn from the marginal vein of the ear of rabbits treated in the same way as the previously described tests, before and after an intraperitoneal injection of the compounds under test at a dose level of 25 mg/kg for each compound.
The blood samples were placed in test tubes containing 1.7 ml of phosphate buffer at pH 7.4 and 0.1 ml of thrombin (Roche Topostasin ® per os) at 50 units NIH/ml, and maintained in an ice bath. The test tubes were maintained at said temperature for 30 minutes and thereupon were transferred to a temperature controlled water bath at 37° C.
The fibrinolytic activity was determined as a percent decrease of the coagulum weight, measured after incubation for 30 minutes at 37° C.
as §1

[5] = test system: thrombin-induced coagulation of platelet rich plasma; assay: Antithrombin activity on PRP, Hartert's thromboelastograph; type: in vivo, New Zealand rabbits; conditions: Oryctolagus cuniculus, Platelet, ip, percent decrease of index ma/[r+k] vs before treatment; 20 mg/kg intraperitoneal, rabbits
Protocol: Determination of the antithrombin activity
The antithrombin activity on the PRP (platelet rich plasma) obtained following the above described method was assessed by Hartert's thromboelastograph (Hellige model). The coagulation was induced by adding to 0.25 ml of plasma 0.06 ml of a thrombin solution (Roche Topostasin® per os) at 60 units*, pH 7.4**. The antithrombin activity was assessed in terms of a percent decrease of the index (ma/[r+k]) which was calculated from the thromboelastograph diagram, wherein r is the reaction time, k is the speed of the coagulum formation and ma is the maximum spread of the tong, after an intraperitoneal treatment with a dose of 20 mg/kg of each compound under examination, referred to the same index obtained before the treatment (control).
as §1

[6] = test system: CaCl2-induced plasma coagulation; assay: Anticoagulant activity on PRP, Hartert's thromboelastograph; type: in vivo, New Zealand rabbits; conditions: Oryctolagus cuniculus, ip, percent increase of total time for coagulum formation (r+k) vs before treatment; 25 mg/kg intraperitoneal, rabbits; read-out: anticoagulant activity (AC)
Protocol: Determination of the anticoagulant activity
The anticoagulant activity was also assessed on PRP of animals treated as described in the preceding methods, by using again Hartert's thromboelastograph method.
The plasma coagulation was induced by adding to 0.25 ml PRP a 1.29% solution of CaCl2.
The anticoagulant effect was determined as a percent increase of the total time for the coagulum formation (the index r+k can be obtained from the thromboelastograph diagram) in a plasma after treatment, referred to the same index obtained before the treatment (control). Again the dose level was 25 mg/kg for each compound under examination, intraperitoneally.
as §1

Row | SMILES | LD50 at 168 h [1] [mg/kg] | ED50 [2] [mg/kg] | ED50 [3] [mg/kg] | fibrinolytic activity (percent decrease of coagulum weight) at 25 mg/kg [4] [%] | inhibition in vivo at 20 mg/kg [5] [%] | change in vivo at 25 mg/kg [6] [%]
1 | COc1cc(C(=O)NCc2cccnc2)cc(C(=O)NCc2cccnc2)c1O [Example 33] | 570 | 58.4 | 38.9 | 15.5 | 20.3 | 11.2
2 | CC(C)(C)COc1ccc(C(=O)NCc2cccnc2)cc1C(=O)NCc1cccnc1 [Example 34] | 351 | 35.6 | 27.3 | 22.7 | 29.7 | 13.6
3 | C=C(C)Oc1c(Cl)cc(C(=O)N(C)Cc2cccnc2)cc1C(=O)N(C)Cc1cccnc1 [Example 52] | 194 | 49.2 | 32.1 | 26.7 | 29.1 | 14.2
4 | CC(C)Oc1ccc(C(=O)NCc2ccncc2)cc1C(=O)NCc1ccncc1 [Example 62] | 618 | 46.8 | 32.3 | 21.7 | 26.5 | 12
5 | COc1cc(C(=O)NCc2cccnc2)cc(C(=O)NCc2cccnc2)c1OC1CCC1 [Example 19] | 254 | 34.7 | 25.2 | 28.1 | 32.8 | 15.6
6 | CCOc1ccc(C(=O)N(CCCC(C)C)Cc2cccnc2)cc1C(=O)N(CCCC(C)C)Cc1cccnc1 [Example 46] | 451 | 34.3 | 24.7 | 29.1 | 32.7 | 15.5
7 | COc1cc(C(=O)NCc2cccnc2)cc(C(=O)NCc2cccnc2)c1OC1CC1 [Example 18] | 228 | 29.4 | 22 | 28.6 | 33.4 | 20.1
8 | CC=COc1c(Cl)cc(C(=O)N(CCC(C)C)Cc2cccnc2)cc1C(=O)N(CCC(C)C)Cc1cccnc1 [Example 49] | 193 | 49 | 30.2 | 21.7 | 27.9 | 15.3
9 | CCC(C)(C)Oc1c(Cl)cc(C(=O)NCc2cccnc2)cc1C(=O)NCc1cccnc1 [Example 29] | 206 | 44.1 | 30.7 | 24.1 | 27.3 | 20
10 | CCCCCOc1c(Cl)cc(C(=O)NCc2cccnc2)cc1C(=O)NCc1cccnc1 [Example 24] | 371 | 41.3 | 35.6 | 6.4 | 24.4 | 16
11 | COc1cc(C(=O)NCc2cccnc2)cc(C(=O)NCc2cccnc2)c1OC1CCCCC1 [Example 21] | 378 | 35.8 | 24.5 | 28.3 | 32.5 | 12.5
12 | CC(C)CCOc1c(Cl)cc(C(=O)NCc2cccnc2)cc1C(=O)NCc1cccnc1 [Example 27] | 195 | 40 | 27.9 | 28.8 | 35.1 | 23.8
13 | CC(C)(C)COc1c(Cl)cc(C(=O)NCc2cccnc2)cc1C(=O)NCc1cccnc1 [Example 28] | 215 | 45.3 | 31 | 25.5 | 27.9 | 19.6
